Experimental data reported in ChEMBL document CHEMBL1687939 (J Med Chem, 2011).
Activity calls are given as the source filed them. No cut-off for these calls is given here.

Assays:
Mus musculus [1] = experiment: Toxicity in BALB/c mouse assessed as body weight loss at 15 to 30 mg/kg, ip qd for 5 days; assay type: organism-based; parameters: dose 15-30 mg/kg, route intraperitoneal; conditions: in vivo, 120 h
4T1 [2] = experiment: Antimetastatic activity against mouse 4T1 cells expressing luciferase xenografted in BALB/c mouse assessed as reduction in metastasic burden in lungs at 15 to 30 mg/kg, ip qd administered 24 hrs after challenge for 5 days measured 24 hrs post last dose by bioluminescent technique relative to control; assay type: functional, organism-based
Carbonic anhydrase 12 = Carbonic anhydrase 12 (Homo sapiens, UniProt O43570)
Description: Inhibition of tumor-associated human carbonic anhydrase 12 preincubated for 15 min by CO2 hydration assay

Carbonic anhydrase 1 = Carbonic anhydrase 1 (Homo sapiens, UniProt P00915)
Description: Inhibition of human cytosolic carbonic anhydrase 1 preincubated for 15 min by CO2 hydration assay

Carbonic anhydrase 9 = Carbonic anhydrase 9 (Homo sapiens, UniProt Q16790)
Description: Inhibition of tumor-associated human carbonic anhydrase 9 preincubated for 15 min by CO2 hydration assay

4T1 [3] = experiment: Antimetastatic activity against mouse 4T1 cells expressing luciferase xenografted in BALB/c mouse assessed as limiting colonization of the cells in the lungs at 15 to 45 mg/kg, ip administered as 3 doses on alternate days measured 24 hrs post last dose by bioluminescent technique relative to control; assay type: functional, organism-based
Mus musculus [4] = experiment: Toxicity in BALB/c mouse assessed as body weight loss at 15 to 45 mg/kg, ip qd administered as 3 doses on alternate days; assay type: organism-based; parameters: dose 15-45 mg/kg, route intraperitoneal; conditions: in vivo

Chain of Carbonic anhydrase 1 (P00915 whole entry): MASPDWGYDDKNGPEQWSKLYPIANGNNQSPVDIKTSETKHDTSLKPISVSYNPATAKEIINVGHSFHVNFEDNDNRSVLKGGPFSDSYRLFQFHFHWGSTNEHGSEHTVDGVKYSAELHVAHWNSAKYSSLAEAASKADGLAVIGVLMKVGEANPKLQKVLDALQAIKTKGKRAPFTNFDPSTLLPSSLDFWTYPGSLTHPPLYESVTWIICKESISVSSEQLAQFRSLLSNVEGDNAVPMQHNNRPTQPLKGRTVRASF
Chain of Carbonic anhydrase 12 (O43570 whole entry): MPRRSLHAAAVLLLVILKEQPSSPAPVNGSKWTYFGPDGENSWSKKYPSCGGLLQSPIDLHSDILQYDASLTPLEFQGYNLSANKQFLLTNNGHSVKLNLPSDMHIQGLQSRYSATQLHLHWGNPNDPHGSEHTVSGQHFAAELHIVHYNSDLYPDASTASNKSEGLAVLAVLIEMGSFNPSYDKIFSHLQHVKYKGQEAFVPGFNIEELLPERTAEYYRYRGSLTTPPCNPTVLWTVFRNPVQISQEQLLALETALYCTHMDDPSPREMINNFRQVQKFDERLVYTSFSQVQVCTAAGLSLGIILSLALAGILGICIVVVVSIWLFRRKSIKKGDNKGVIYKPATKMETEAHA

Ki (Carbonic anhydrase 12) [nM]	Ki (Carbonic anhydrase 9) [nM]	SMILES	further results
4.6		CC(=O)c1ccc(NC(=O)Nc2ccc(S(N)(=O)=O)cc2)cc1	Activity (Mus musculus [1]): Non-toxic; Activity (4T1 [2]): inactive
6		COc1ccc(NC(=O)Nc2ccc(S(N)(=O)=O)cc2)c(C)c1	
61.2	465	COc1ccccc1NC(=O)Nc1ccc(S(N)(=O)=O)cc1	Ki (Carbonic anhydrase 1): 92 nM
4.2	0.5	CC(C)c1ccccc1NC(=O)Nc1ccc(S(N)(=O)=O)cc1	
	0.9	NS(=O)(=O)c1ccc(NC(=O)Nc2cccc([N+](=O)[O-])c2)cc1	Activity (4T1 [3]): Dose-dependent effect; Activity (Mus musculus [4]): Non-toxic
49.7	541	CC(C)c1ccc(NC(=O)Nc2ccc(S(N)(=O)=O)cc2)cc1	
7.9	69.3	NS(=O)(=O)c1ccc(NC(=O)Nc2ccc(Br)cc2)cc1	
2.5	0.8	CCCCOc1ccc(NC(=O)Nc2ccc(S(N)(=O)=O)cc2)cc1	
7.1	69.1	NS(=O)(=O)c1ccc(NC(=O)Nc2ccc(Oc3ccccc3)cc2)cc1	Ki (Carbonic anhydrase 1): 604 nM
4.6	0.3	N#Cc1ccccc1NC(=O)Nc1ccc(S(N)(=O)=O)cc1	Ki (Carbonic anhydrase 1): 10.9 nM
6.5	6	N#Cc1ccc(NC(=O)Nc2ccc(S(N)(=O)=O)cc2)cc1	Ki (Carbonic anhydrase 1): 57 nM
28.5	376	CCCCc1ccc(NC(=O)Nc2ccc(S(N)(=O)=O)cc2)cc1	
4.3	24.5	NS(=O)(=O)c1ccc(NC(=O)Nc2ccc(I)cc2)cc1	
5.3		NS(=O)(=O)c1ccc(NC(=O)Nc2ccc(Cl)cc2)cc1	
